From patent US20150197497A1, “SELECTIVE INHIBITORS OF HISTONE DEACETYLASE ISOFORM 6 AND METHODS THEREOF” (DANA-FARBER CANCER INSTITUTE, INC., priority 2011, published 2015)
pEC50, pIC50: −log10 of the molar value.

How the values were obtained:
HDAC3 = molecular target: T1, HDAC3 (Homo sapiens, UniProt O15379); assay: In vitro HDAC enzyme inhibition assay, HDAC3; format: biochemical; settings: for HDAC3/HDAC6 in vitro selectivity: ratio of IC50 for HDAC3 relative to that of HDAC6; for pIC50: recombinant full-length HDAC3, substrate MAZ1600 9 μM
T1 construct: Recombinant, full-length HDAC protein (BPS Biosciences) was incubated with fluorophore conjugated substrate; purchased BPS Biosciences
T1 sequence (O15379 whole entry): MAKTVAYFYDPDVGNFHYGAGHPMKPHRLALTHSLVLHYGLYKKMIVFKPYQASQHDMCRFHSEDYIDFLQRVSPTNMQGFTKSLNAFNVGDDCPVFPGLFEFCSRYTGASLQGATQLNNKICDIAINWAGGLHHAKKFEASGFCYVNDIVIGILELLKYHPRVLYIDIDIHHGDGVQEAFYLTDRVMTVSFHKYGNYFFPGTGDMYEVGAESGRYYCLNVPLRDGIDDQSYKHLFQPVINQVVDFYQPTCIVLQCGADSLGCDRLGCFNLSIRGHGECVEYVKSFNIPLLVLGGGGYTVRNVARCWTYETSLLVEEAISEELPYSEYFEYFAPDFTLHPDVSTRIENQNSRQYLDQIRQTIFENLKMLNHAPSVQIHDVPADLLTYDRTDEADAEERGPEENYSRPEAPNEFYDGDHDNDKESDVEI
T1 sequence (Q9Y618 395-489 partner limits assumed): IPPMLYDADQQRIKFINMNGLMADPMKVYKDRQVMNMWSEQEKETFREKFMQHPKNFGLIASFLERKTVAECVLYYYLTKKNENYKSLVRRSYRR
Method in brief: (§1)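 Deacetylase activity of full-length recombinant HDAC assessed via trypsin-coupled AMC release from substrate at Km concentration, pH 7.4 buffer with TCEP. Kinetic fluorescence slopes were normalized to controls.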

HDAC1 = molecular target: T2, HDAC1 (Homo sapiens, UniProt Q13547); assay: In vitro HDAC enzyme inhibition assay, HDAC1; format: biochemical; settings: for HDAC1/HDAC6 in vitro selectivity: ratio of IC50 for HDAC1 relative to that of HDAC6; for pIC50: recombinant full-length HDAC1, substrate MAZ1600 21 μM
T2 construct: Recombinant, full-length HDAC protein (BPS Biosciences) was incubated with fluorophore conjugated substrate; purchased BPS Biosciences
T2 sequence (Q13547 whole entry): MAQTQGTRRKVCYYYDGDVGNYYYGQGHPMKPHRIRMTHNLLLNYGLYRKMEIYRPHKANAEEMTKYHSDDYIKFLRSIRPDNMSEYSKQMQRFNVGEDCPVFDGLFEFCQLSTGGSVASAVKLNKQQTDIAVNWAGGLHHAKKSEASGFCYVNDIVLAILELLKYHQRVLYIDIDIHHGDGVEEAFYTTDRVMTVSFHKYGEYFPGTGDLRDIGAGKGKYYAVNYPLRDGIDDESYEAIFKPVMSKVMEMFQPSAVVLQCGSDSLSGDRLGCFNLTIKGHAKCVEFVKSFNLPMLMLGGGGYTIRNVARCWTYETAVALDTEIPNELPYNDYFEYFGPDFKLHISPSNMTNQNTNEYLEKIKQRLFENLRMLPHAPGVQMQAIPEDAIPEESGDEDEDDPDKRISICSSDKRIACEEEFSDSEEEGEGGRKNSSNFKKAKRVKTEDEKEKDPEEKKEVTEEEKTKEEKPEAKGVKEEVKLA
Method in brief: as §1

HDAC7 = molecular target: T3, HDAC7 (Homo sapiens, UniProt Q8WUI4); assay: In vitro HDAC enzyme inhibition assay, HDAC7; format: biochemical; settings: for HDAC7/HDAC6 in vitro selectivity: ratio of IC50 for HDAC7 relative to that of HDAC6; for pIC50: recombinant full-length HDAC7, substrate MAZ1675 22 μM
T3 construct: Recombinant, full-length HDAC protein (BPS Biosciences) was incubated with fluorophore conjugated substrate; purchased BPS Biosciences
T3 sequence (Q8WUI4 1-952): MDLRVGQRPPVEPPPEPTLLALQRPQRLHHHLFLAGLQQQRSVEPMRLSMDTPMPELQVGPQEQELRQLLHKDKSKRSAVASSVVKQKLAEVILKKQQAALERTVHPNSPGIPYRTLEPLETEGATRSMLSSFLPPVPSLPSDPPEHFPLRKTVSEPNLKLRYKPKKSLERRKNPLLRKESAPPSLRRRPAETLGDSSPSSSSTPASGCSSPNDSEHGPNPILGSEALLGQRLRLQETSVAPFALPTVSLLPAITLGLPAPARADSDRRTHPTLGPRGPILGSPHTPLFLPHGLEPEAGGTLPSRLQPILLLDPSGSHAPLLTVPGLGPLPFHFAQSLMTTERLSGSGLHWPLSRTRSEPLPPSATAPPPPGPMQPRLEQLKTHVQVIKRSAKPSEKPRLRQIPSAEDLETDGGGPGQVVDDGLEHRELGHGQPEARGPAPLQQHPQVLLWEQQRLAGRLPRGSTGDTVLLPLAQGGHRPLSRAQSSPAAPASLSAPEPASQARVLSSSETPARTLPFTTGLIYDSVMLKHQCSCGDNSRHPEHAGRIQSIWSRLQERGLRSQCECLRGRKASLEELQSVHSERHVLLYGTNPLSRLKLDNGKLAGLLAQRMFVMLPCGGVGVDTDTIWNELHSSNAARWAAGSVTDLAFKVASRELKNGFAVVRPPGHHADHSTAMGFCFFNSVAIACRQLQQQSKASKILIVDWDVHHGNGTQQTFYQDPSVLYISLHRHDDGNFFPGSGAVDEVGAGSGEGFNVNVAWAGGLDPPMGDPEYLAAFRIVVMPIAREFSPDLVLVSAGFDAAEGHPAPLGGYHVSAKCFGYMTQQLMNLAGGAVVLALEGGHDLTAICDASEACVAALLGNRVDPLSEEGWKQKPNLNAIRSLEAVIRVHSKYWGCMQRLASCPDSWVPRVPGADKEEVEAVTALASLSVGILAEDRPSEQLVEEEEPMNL
Method in brief: as §1

acetylated histones = assay: High-content image analysis of induction of acetylated histones in A549 cells; settings: Homo sapiens, A549, 8 h, read-out: EC50 for half-maximal induction of acetylated histones (AcHistone)
Protocol: Cells were treated with each test HDACi compound with an automated pin transfer instrument (Janus, Perkin Elmer) and incubated for 8 hours. […] Fixation solution was aspirated and 90 μL of washing solution (0.1% Triton X-100 in PBS) was added prior to 10 minute incubation at 4° C. Washing solution was aspirated and cells were incubated at 4° C. for about 1 hour in blocking solution (0.1% Triton X-100+2% BSA in PBS). Washing solution was aspirated, and cells were incubated for about 1 hour at 4° C. in primary antibody for acetylated-tubulin (Sigma T7451) and acetylated-histone (Cell Signaling #9441L) at a 1:1000 dilution in blocking solution. Primary antibody solution was aspirated, and cells were washed three times in 90 μL of washing solution. […] Secondary antibody and nuclear staining solution was aspirated and cells were washed three times in 90 μL of washing solution. After the third wash, 50 μL of PBS was added to each well. Image acquisition was done on a high content imaging microscope (ImageXpress Micro, Molecular Devices), and image analysis (MetaXpress, Molecular Devices) was performed to obtain average acetylated-tubulin and acetylated-histone signal per cell based on treatment. Replicate experimental data from incubations with inhibitor were normalized to DMSO controls.

HDAC9 = molecular target: T4, HDAC9 (Homo sapiens, UniProt Q9UKV0); assay: In vitro HDAC enzyme inhibition assay, HDAC9; format: biochemical; settings: for HDAC9/HDAC6 in vitro selectivity: ratio of IC50 for HDAC9 relative to that of HDAC6; for pIC50: recombinant full-length HDAC9, substrate MAZ1675 26 μM; for selectivity toward HDAC6 compared to HDAC9 (in words): tested in vitro
T4 construct: Recombinant, full-length HDAC protein (BPS Biosciences) was incubated with fluorophore conjugated substrate; purchased BPS Biosciences
T4 sequence (Q9UKV0 whole entry): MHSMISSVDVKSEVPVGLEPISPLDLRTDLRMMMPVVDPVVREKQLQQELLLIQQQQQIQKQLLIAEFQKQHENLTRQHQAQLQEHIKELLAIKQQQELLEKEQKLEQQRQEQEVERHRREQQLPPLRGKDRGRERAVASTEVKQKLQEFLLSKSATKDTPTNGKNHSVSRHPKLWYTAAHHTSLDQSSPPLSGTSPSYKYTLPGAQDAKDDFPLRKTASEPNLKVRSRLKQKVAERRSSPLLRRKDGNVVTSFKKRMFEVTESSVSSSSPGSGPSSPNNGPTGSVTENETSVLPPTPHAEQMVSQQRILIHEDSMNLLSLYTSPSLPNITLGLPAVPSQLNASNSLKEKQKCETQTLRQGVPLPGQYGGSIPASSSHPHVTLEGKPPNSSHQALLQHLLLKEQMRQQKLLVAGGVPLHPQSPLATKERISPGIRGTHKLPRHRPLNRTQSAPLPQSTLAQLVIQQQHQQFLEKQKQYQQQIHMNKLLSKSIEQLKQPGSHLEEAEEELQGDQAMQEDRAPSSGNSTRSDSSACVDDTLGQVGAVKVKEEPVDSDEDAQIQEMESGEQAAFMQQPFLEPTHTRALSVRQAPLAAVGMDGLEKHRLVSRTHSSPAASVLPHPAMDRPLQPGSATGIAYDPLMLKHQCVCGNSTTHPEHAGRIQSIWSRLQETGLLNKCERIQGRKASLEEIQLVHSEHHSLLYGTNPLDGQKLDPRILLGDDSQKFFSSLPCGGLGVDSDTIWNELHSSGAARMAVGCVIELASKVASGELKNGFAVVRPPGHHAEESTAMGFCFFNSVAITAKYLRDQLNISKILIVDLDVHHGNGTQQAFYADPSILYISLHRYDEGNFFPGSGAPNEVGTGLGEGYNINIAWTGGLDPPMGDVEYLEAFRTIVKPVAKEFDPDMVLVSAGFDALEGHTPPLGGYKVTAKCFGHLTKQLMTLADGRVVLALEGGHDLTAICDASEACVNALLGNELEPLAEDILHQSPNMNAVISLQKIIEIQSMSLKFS
Method in brief: as §1

HDAC8 = molecular target: T5, HDAC8 (Homo sapiens, UniProt Q9BY41); assay: In vitro HDAC enzyme inhibition assay, HDAC8; format: biochemical; settings: for HDAC8/HDAC6 in vitro selectivity: ratio of IC50 for HDAC8 relative to that of HDAC6; for pIC50: recombinant full-length HDAC8, substrate MAZ1675 282 μM
T5 construct: Recombinant, full-length HDAC protein (BPS Biosciences) was incubated with fluorophore conjugated substrate; purchased BPS Biosciences
T5 sequence (Q9BY41 1-377): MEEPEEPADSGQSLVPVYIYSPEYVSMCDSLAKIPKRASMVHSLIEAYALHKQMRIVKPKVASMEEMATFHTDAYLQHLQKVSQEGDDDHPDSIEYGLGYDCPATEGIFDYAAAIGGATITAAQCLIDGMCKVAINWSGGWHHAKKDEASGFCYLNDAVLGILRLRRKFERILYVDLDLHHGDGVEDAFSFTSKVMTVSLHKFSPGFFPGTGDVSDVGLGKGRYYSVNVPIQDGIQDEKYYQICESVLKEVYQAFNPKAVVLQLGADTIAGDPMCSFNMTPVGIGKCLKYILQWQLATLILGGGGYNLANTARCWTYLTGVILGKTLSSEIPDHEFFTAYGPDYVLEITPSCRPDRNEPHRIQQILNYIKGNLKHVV
Method in brief: as §1

HDAC4 = molecular target: T6, HDAC4 (Homo sapiens, UniProt P56524); assay: In vitro HDAC enzyme inhibition assay, HDAC4; format: biochemical; settings: for HDAC4/HDAC6 in vitro selectivity: ratio of IC50 for HDAC4 relative to that of HDAC6; for pIC50: recombinant full-length HDAC4, substrate MAZ1675 10 μM; for selectivity toward HDAC6 compared to HDAC4 (in words): tested in vitro
T6 construct: Recombinant, full-length HDAC protein (BPS Biosciences) was incubated with fluorophore conjugated substrate; purchased BPS Biosciences
T6 sequence (P56524 whole entry): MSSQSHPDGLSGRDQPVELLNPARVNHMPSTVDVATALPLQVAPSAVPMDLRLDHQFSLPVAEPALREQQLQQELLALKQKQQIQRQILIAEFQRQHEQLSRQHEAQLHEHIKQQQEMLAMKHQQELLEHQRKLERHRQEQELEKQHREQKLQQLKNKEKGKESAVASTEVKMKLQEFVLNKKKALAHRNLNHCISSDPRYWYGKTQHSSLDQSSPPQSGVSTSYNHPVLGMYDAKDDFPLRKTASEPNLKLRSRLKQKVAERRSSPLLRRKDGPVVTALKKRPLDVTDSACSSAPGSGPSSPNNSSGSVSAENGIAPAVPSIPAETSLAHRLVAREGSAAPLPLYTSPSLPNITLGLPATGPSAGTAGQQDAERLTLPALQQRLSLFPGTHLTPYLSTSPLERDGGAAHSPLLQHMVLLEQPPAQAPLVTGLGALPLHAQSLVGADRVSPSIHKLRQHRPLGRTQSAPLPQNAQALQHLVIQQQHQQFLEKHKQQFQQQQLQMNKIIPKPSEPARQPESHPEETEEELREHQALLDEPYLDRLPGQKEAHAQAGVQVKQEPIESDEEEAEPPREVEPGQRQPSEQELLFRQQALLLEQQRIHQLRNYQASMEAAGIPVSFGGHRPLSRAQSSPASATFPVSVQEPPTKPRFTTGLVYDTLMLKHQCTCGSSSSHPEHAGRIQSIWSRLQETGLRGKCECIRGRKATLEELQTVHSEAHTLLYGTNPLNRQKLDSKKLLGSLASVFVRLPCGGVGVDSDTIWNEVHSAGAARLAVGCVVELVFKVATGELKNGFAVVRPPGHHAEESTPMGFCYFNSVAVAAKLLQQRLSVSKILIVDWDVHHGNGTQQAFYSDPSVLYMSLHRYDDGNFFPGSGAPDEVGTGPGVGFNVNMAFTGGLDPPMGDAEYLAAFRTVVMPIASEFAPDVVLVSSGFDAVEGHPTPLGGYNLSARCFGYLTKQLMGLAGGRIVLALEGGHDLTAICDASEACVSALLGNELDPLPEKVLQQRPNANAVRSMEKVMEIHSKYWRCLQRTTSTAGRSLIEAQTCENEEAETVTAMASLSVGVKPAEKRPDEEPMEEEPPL
Method in brief: as §1

acetylated tubulin = assay: High-content image analysis of induction of acetylated tubulin in A549 cells; settings: for pEC50: Homo sapiens, A549, 8 h, read-out: EC50 for half-maximal induction of acetylated tubulin (AcTubulin); for AcHistone/AcTubulin in cell selectivity toward HDAC6: ratio of EC50 acetylated histone to EC50 acetylated tubulin, A549 cells
HDAC2 = molecular target: T7, HDAC2 (Homo sapiens, UniProt Q92769); assay: In vitro HDAC enzyme inhibition assay, HDAC2; format: biochemical; settings: for HDAC2/HDAC6 in vitro selectivity: ratio of IC50 for HDAC2 relative to that of HDAC6; for pIC50: recombinant full-length HDAC2, substrate MAZ1600 22 μM
T7 construct: Recombinant, full-length HDAC protein (BPS Biosciences) was incubated with fluorophore conjugated substrate; purchased BPS Biosciences
T7 sequence (Q92769 whole entry): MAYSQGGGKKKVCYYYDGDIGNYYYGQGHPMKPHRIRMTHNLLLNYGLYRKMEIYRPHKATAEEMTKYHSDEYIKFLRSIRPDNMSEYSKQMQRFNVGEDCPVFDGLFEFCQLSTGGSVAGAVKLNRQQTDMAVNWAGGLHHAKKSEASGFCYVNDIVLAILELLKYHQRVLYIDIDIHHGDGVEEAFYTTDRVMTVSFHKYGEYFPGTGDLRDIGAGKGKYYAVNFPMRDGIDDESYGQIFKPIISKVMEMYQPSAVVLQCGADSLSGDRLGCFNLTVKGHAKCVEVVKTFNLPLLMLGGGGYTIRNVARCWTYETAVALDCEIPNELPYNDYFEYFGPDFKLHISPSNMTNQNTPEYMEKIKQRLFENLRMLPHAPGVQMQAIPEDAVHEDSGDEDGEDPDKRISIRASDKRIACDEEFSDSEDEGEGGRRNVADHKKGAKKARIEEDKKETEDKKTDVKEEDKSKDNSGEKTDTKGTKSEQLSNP
Method in brief: as §1

HDAC5 = molecular target: T8, HDAC5 (Homo sapiens, UniProt Q9UQL6); assay: In vitro HDAC enzyme inhibition assay, HDAC5; format: biochemical; settings: for HDAC5/HDAC6 in vitro selectivity: ratio of IC50 for HDAC5 relative to that of HDAC6; for pIC50: recombinant full-length HDAC5, substrate MAZ1675 40 μM; for selectivity toward HDAC6 compared to HDAC5 (in words): tested in vitro
T8 construct: Recombinant, full-length HDAC protein (BPS Biosciences) was incubated with fluorophore conjugated substrate; purchased BPS Biosciences
T8 sequence (Q9UQL6 whole entry): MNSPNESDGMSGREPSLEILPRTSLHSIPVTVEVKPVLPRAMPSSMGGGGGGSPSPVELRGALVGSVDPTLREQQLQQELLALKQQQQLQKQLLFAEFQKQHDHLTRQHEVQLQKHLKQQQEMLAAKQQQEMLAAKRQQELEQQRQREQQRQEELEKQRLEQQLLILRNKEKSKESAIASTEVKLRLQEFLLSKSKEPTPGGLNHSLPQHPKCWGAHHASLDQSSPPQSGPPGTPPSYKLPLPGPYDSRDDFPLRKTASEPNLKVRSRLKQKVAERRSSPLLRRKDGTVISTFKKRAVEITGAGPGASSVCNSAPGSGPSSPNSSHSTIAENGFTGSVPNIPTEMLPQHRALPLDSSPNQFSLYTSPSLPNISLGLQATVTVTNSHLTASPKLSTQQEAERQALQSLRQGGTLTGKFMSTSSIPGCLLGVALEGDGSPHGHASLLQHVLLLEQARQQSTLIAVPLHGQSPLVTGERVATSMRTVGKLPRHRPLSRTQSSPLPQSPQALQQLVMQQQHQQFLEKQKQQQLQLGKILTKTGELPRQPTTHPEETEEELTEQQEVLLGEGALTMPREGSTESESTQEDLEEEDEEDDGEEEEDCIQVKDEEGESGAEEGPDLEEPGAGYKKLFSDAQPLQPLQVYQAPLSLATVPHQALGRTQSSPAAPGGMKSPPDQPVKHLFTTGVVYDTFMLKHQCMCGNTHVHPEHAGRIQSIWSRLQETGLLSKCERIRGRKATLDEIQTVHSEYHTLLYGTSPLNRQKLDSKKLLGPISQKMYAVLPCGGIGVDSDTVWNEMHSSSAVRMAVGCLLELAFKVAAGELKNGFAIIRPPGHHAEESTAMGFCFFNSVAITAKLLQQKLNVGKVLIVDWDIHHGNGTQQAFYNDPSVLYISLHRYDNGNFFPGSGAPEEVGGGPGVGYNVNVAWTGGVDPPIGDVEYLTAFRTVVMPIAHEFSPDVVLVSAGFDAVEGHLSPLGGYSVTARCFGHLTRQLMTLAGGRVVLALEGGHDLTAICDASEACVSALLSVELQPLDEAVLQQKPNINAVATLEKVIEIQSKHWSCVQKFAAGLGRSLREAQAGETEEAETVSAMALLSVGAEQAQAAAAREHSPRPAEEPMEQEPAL
Method in brief: as §1

## O=C(NO)c1ccc(Cn2nnc3ccccc32)cc1 [C1, 4-((1H-benzo[d][1,2,3]triazol-1-yl)methyl)-N-hydroxybenzamide]
HDAC3
  HDAC3/HDAC6 in vitro selectivity: 10277
  pIC50: 6.78
HDAC1
  HDAC1/HDAC6 in vitro selectivity: 3996
  pIC50: 7.19
HDAC7
  HDAC7/HDAC6 in vitro selectivity: 9286
  pIC50: 6.83
Acetylated histones
  pEC50: 5.15
HDAC9
  HDAC9/HDAC6 in vitro selectivity: 67800
  pIC50: 5.96
  selectivity toward HDAC6 compared to HDAC9 (in words): exceptionally high selectivity (Inhibitors with in vitro selectivity values for HDAC6 of at least 30,000 are considered to have exceptionally high selectivity toward HDAC6)
HDAC8
  HDAC8/HDAC6 in vitro selectivity: 19098
  pIC50: 6.52
HDAC4
  HDAC4/HDAC6 in vitro selectivity: 66860
  pIC50: 5.97
  selectivity toward HDAC6 compared to HDAC4 (in words): exceptionally high selectivity (Inhibitors with in vitro selectivity values for HDAC6 of at least 30,000 are considered to have exceptionally high selectivity toward HDAC6)
Acetylated tubulin
  pEC50: 5.57
  AcHistone/AcTubulin in cell selectivity toward HDAC6: 2.641
HDAC2
  HDAC2/HDAC6 in vitro selectivity: 4884
  pIC50: 7.11
HDAC5
  HDAC5/HDAC6 in vitro selectivity: 59773
  pIC50: 6.02
  selectivity toward HDAC6 compared to HDAC5 (in words): exceptionally high selectivity (Inhibitors with in vitro selectivity values for HDAC6 of at least 30,000 are considered to have exceptionally high selectivity toward HDAC6)

## O=C(NO)c1ccc(Cn2nnc3cc(F)ccc32)cc1 [C3, 4-((5-fluoro-1H-benzo[d][1,2,3]triazol-1-yl)methyl)-N-hydroxybenzamide]
HDAC3
  HDAC3/HDAC6 in vitro selectivity: 19646
  pIC50: 6.29
HDAC1
  HDAC1/HDAC6 in vitro selectivity: 8300
  pIC50: 6.66
HDAC7
  HDAC7/HDAC6 in vitro selectivity: 21126
  pIC50: 6.26
Acetylated histones
  pEC50: 5.82
HDAC9
  HDAC9/HDAC6 in vitro selectivity: 62138
  pIC50: 5.79
  selectivity toward HDAC6 compared to HDAC9 (in words): exceptionally high selectivity (Inhibitors with in vitro selectivity values for HDAC6 of at least 30,000 are considered to have exceptionally high selectivity toward HDAC6)
HDAC8
  HDAC8/HDAC6 in vitro selectivity: 28870
  pIC50: 6.12
HDAC4
  HDAC4/HDAC6 in vitro selectivity: 81082
  pIC50: 5.67
  selectivity toward HDAC6 compared to HDAC4 (in words): exceptionally high selectivity (Inhibitors with in vitro selectivity values for HDAC6 of at least 30,000 are considered to have exceptionally high selectivity toward HDAC6)
Acetylated tubulin
  pEC50: 6.84
  AcHistone/AcTubulin in cell selectivity toward HDAC6: 10.4517
HDAC2
  HDAC2/HDAC6 in vitro selectivity: 10108
  pIC50: 6.58
HDAC5
  HDAC5/HDAC6 in vitro selectivity: 68665
  pIC50: 5.74
  selectivity toward HDAC6 compared to HDAC5 (in words): exceptionally high selectivity (Inhibitors with in vitro selectivity values for HDAC6 of at least 30,000 are considered to have exceptionally high selectivity toward HDAC6)

## O=C(NO)c1ccc(Cn2nnc3cc(Cl)ccc32)cc1 [C4, 4-((5-chloro-1H-benzo[d][1,2,3]triazol-1-yl)methyl)-N-hydroxybenzamide]
HDAC3
  HDAC3/HDAC6 in vitro selectivity: 3920
  pIC50: 6.66
HDAC1
  HDAC1/HDAC6 in vitro selectivity: 1712
  pIC50: 7.02
HDAC7
  HDAC7/HDAC6 in vitro selectivity: 7608
  pIC50: 6.38
Acetylated histones
  pEC50: 5.22
HDAC9
  HDAC9/HDAC6 in vitro selectivity: 26037
  pIC50: 5.84
HDAC8
  HDAC8/HDAC6 in vitro selectivity: 11132
  pIC50: 6.21
HDAC4
  HDAC4/HDAC6 in vitro selectivity: 34808
  pIC50: 5.72
  selectivity toward HDAC6 compared to HDAC4 (in words): exceptionally high selectivity (Inhibitors with in vitro selectivity values for HDAC6 of at least 30,000 are considered to have exceptionally high selectivity toward HDAC6)
Acetylated tubulin
  pEC50: 5.72
  AcHistone/AcTubulin in cell selectivity toward HDAC6: 3.137
HDAC2
  HDAC2/HDAC6 in vitro selectivity: 2562
  pIC50: 6.85
HDAC5
  HDAC5/HDAC6 in vitro selectivity: 26352
  pIC50: 5.84

## O=C(NO)c1ccc(Cn2nnc3cc(Br)ccc32)cc1 [C5, 4-((5-bromo-1H-benzo[d][1,2,3]triazol-1-yl)methyl)-N-hydroxybenzamide]
HDAC3
  HDAC3/HDAC6 in vitro selectivity: 4479
  pIC50: 6.94
HDAC1
  HDAC1/HDAC6 in vitro selectivity: 2113
  pIC50: 7.26
HDAC7
  HDAC7/HDAC6 in vitro selectivity: 11817
  pIC50: 6.52
Acetylated histones
  pEC50: 5.64
HDAC9
  HDAC9/HDAC6 in vitro selectivity: 42107
  pIC50: 5.96
  selectivity toward HDAC6 compared to HDAC9 (in words): exceptionally high selectivity (Inhibitors with in vitro selectivity values for HDAC6 of at least 30,000 are considered to have exceptionally high selectivity toward HDAC6)
HDAC8
  HDAC8/HDAC6 in vitro selectivity: 16483
  pIC50: 6.37
HDAC4
  HDAC4/HDAC6 in vitro selectivity: 60319
  pIC50: 5.81
  selectivity toward HDAC6 compared to HDAC4 (in words): exceptionally high selectivity (Inhibitors with in vitro selectivity values for HDAC6 of at least 30,000 are considered to have exceptionally high selectivity toward HDAC6)
Acetylated tubulin
  pEC50: 6.83
  AcHistone/AcTubulin in cell selectivity toward HDAC6: 15.37
HDAC2
  HDAC2/HDAC6 in vitro selectivity: 3277
  pIC50: 7.07
HDAC5
  HDAC5/HDAC6 in vitro selectivity: 48751
  pIC50: 5.90
  selectivity toward HDAC6 compared to HDAC5 (in words): exceptionally high selectivity (Inhibitors with in vitro selectivity values for HDAC6 of at least 30,000 are considered to have exceptionally high selectivity toward HDAC6)
